From patent US20160158368A1, “METHODS AND COMPOSITIONS FOR THE TREATMENT OF HISTIOCYTOSIS” (Therapure Biopharma Inc., priority 2014, published 2016)

What was measured:
[1] = test system: SU-DHL-1 cells; experiment: PrestoBlue cell viability assay, SU-DHL-1 cells; format: cell-based, human; conditions: for growth inhibition: SU-DHL-1 cells
[2] = test system: U937 cells; experiment: PrestoBlue cell viability assay, U937 cells; format: cell-based, human; conditions: for growth inhibition: U937 cells

Molecule | IC50 ([1]; Homo sapiens, SU-DHL-1, 48 hours, cell viability, n=3, read-out: average half maximal inhibitory concentration (IC50)) | growth inhibition [1] | IC50 ([2]; Homo sapiens, U-937, U937, 48 hours, cell viability, n=3, read-out: average half maximal inhibitory concentration (IC50)) | growth inhibition [2]
Nc1nc(Cl)nc2c1ncn2C1CC(O)C(CO)O1 (stereo not drawn) [cladribine, 5-(6-amino-2-chloro-purin-9-yl)-2-(hydroxymethyl)oxolan-3-ol] | 204 nM | dose-dependent growth inhibition | 42 nM | dose-dependent growth inhibition
hemoglobin: human hemoglobin, a CD163 ligand, unconjugated control | – | not | – | not
